Legend:
[1] = target: T1, interaction between PCNA and the PIP-box sequence of FEN1 (Homo sapiens, UniProt P39748); experiment: SPR (Biacore) PCNA binding to immobilized FEN1 PIP-box in presence of caPep
T1 construct: Recombinant PCNA (rPCNA), purchased from Surmodics, Inc. (Edina, MN); FEN1 peptide containing the PIP-box (SKSRQGSTQGRLDDFF); purchased Surmodics, Inc. (Edina, MN)
Experimental: All experiments were conducted on the Biacore T100 (GE Healthcare Life Sciences, Piscataway, NJ) in the running buffer HBS-EP+ (10 mM HEPES pH 7.4, 0.15 M NaCl, 3 mM EDTA, 0.05% v/v Surfactant P20). FEN1 peptide containing the PIP-box (SKSRQGSTQGRLDDFF) was immobilized on a carboxymethylated dextran modified CM5 chip using carbodiimide covalent linkage procedures outlined by the manufacturer (GE Healthcare Life Sciences). Recombinant PCNA (rPCNA), purchased from Surmodics, Inc. (Edina, MN), were serially diluted in the HBS-EP+ buffer and flowed over the FEN1-coated sensor chip in the presence of 0, 500, or 1000 nM of caPep at a 5 ìl/min flow rate with a contact time of 3 minutes, followed by dissociation under the same buffer condition and regeneration of the chip surface in 10 mM glycine-HCl (pH 2.0). Binding curves were recorded for rPCNA concentrations ranging from 250 to 1000 nM in the presence of 0, 500, or 1000 nM of caPep. Kinetic parameters from Biacore binding data were determined using Biacore T100 Evaluation Software Version 2.0.3.

SK-N-BE(2)c cells = experiment: Clonogenic assay; type: cell-based, human; conditions: R9-caPep alone 20 µM 3 weeks, or cisplatin alone 1 µM 2 h, 3 dishes averaged
Experimental: Three hundred fifty SK-N-BE(2)c cells were seeded onto a 60-mm tissue culture dish. Once attached overnight, cells were treated with or without cisplatin for 2 h. Cells were washed twice with growth medium and were cultured in fresh medium with or without R9-caPep for 3 weeks to allow colony formation. The medium was changed every 3 d. The colonies formed under each treatment conditions were counted after being stained with 0.5% crystal violet.

panel of NB cell lines = type: cell-based, human; conditions: up to 50 µM; data not shown
Experimental: The human NB cell lines, SK-N-DZ, SK-N-BE(2)c, SK-N-AS, SK-N-SH, and SK-N-FI were obtained from the American Type Culture Collection (Rockville, MD). Cells were maintained in DMEM with 10% fetal bovine serum (FBS), 100 units/ml penicillin, and 100 µg/ml streptomycin in the presence of 5% CO2 at 37°C. Human PBMCs from a healthy donor were purchased from Sanguine BioSciences (Valencia, CA) and grown in RPMI1640 with10% FBS, 100 units/ml penicillin, 100 µg/ml streptomycin, and 10 ng/ml IL-2 in the presence of 5% CO2 at 37°C. Human embryonic progenitor cell line 7SM0032 was acquired from Millipore (Billerica, MA) and grown in the hEPM-1 Media Kit purchased from the same company.
To measure cell growth, cells were seeded at 3×10^4/ml. After being allowed to attach overnight, cells were treated with various concentrations of the peptides for 72 h. Cell growth was measured by the CellTitor-Glo assay (Promega, Madison, WI) according to manufacturer's instruction. To measure apoptosis, cells were seeded at 1×10^5/ml onto a chamber slide. Once attached, cells were treated with the peptides for 48 h. Cells were fixed and analyzed by a TUNEL assay using the TMR red in situ cell death detection kit (Roche Diagnostics, Indianapolis, IN).

[2] = test system: PCNA and FEN1 co-localization in SK-N-AS NB cells; experiment: PCNA/FEN1 co-localization, immunofluorescence; type: cell-based, human; conditions: synchronized, 30 µM peptide 6 h after mimosine release
Experimental: (§1) Cells were seeded at 1×10^5/ml onto a chamber slide and were allowed to attach overnight. To analyze the interaction of PCNA with FEN1, LIGI, or Pol ä, we first synchronize cells at the G1/S boundary. The synchronization is achieved by starving cells in medium containing 0.25% FBS for 24 h. Cells were further cultured in the complete medium containing 400 µM of mimosine for 24 h. To release cells into S phase, cells were washed and incubated in mimosine-free medium containing 30 µM R9-caPep or R9-srbPep for 6 h. We pre-determined that the majority of cells were in the S-phase 6 h after mimosine was removed (data not shown). Cells were fixed in ice-cold methanol:acetone (50%:50%) for 10 min or in 4% paraformaldehyde for 20 min at room temperature. Cells were incubated with a goat polyclonal anti-PCNA antibody (Santa Cruz) and a mouse monoclonal anti-FEN1 antibody (Santa Cruz), a mouse anti-POLD3 antibody (Sigma, St. Louis, MO), or a mouse anti-LIGI antibody (Abcam, Cambridge, MA) for 1 h at room temperature. After being washed with PBS, cells were incubated with Alexa Fluor 488 conjugated anti-mouse IgG and Alexa Fluor 555 conjugated anti-goat IgG antibodies (Invitrogen, Grand Island, NY) for 1 h. Cells were mounted in Vectashield with DAPI (Vector Labs, Burlingame, CA) and visualized by a confocal microscope.

[3] = test system: PCNA and LIGI co-localization in SK-N-AS NB cells; experiment: PCNA/LIGI co-localization, immunofluorescence; type: cell-based, human; conditions: synchronized, 30 µM peptide 6 h after mimosine release
Experimental: as §1

synchronized cells = experiment: Cell cycle analysis of synchronized cells within 6 h (data not shown); type: cell-based; conditions: 6 h after mimosine release
Experimental: Cells were seeded at 1×10^5/ml. Once attached, cells were treated with or without R9-caPep for 48 hours. Cells were fixed in 60% ethanol and stained with propidium iodide (PI). The cellular PI fluorescence intensity was determined by flow cytometry. The flow cytometry data were analyzed by the FlowJo program to model various cell populations.
as §1, with “After being washed with PBS, cells were incubated with Alexa Fluor 488 conjugated anti-mouse IgG and Alexa Fluor 555 conjugated anti-goat IgG antibodies (Invitrogen, Grand Island, NY) for 1 h. Cells were mounted in Vectashield with DAPI (Vector Labs, Burlingame, CA) and visualized by a confocal microscope.” left out

ãH2A.X level = experiment: γH2A.X western blot after γ-irradiation; type: cell-based; conditions: 30 µM peptide, 2 h pretreatment, 5 Gy
Experimental: (§2) To study DNA damage and repair, attached cells were pretreated with the peptides for 2 h and were then ã-irradiated (5 Gy). After irradiation, cells were cultured in the presence of the peptides for the indicated time. For analyzing ãH2A.X foci formation, cells were fixed in a solution of methanol and acetone (70%:30% v/v) for 15 min at −20°C. The slides were air-dried for storage and rehydrated in PBS prior to immunostaining. Cells were stained by a mouse monoclonal antibody specific to ãH2A.X (Millipore, Billerica, MA) followed by an Alexa Fluor 488 conjugated anti-mouse IgG antibody. For analyzing Rad51 foci formation, cells were fixed in PBS buffered 4% paraformaldehyde at room temperature for 15 min. After being washed twice by PBS, cells were permeabilized in PBS containing 0.5% triton for 15 min on ice. The fixed and permeabilized cells were stained with a rabbit polyclonal antibody raised against the human Rad51 (Santa Cruz) followed by an Alexa Fluor 488 conjugated anti-rabbit IgG antibody. Stained cells were visualized and imaged by a confocal microscope.
Cell extracts were prepared by dissolving cell pellets directly into the Laemmli sample buffer and resolved in a 4–12% SDS polyacrylamide gel. Resolved proteins were blotted onto a nitrocellulose membrane. The membrane was blocked with 5% nonfat dry milk and incubated with an antibody specific to ãH2A.X (Millipore), total H2A.X (Cell Signaling Technology, Danvers, MA), MYCN (Cell Signaling Technology), or actin (Sigma) in the blocking buffer. After incubation with peroxidase-conjugated secondary antibodies, the protein of interest was detected using an ECL kit purchased from GE Healthcare.

[4] = test system: Rad51 foci in SK-N-BE(2)c cells; experiment: Rad51 foci immunofluorescence after γ-irradiation; type: cell-based, human; conditions: 2 h peptide pretreatment, 5 Gy; 48 h after irradiation
Experimental: as §2

For “caPep: eight amino acid peptide corresponding to the L126-Y133 sequence of human PCNA (LGIPEQEY)”, the “affinity of PCNA-FEN1 PIP-box interaction” value ([1]; 0, 500 or 1000 nM caPep) was “decrease the affinity of PCNA-FEN1 PIP-box interaction in a dose-dependent manner” and the “rPCNA interaction with immobilized FEN1 PIP-box sequence (SPR response)” value ([1]; 1000 nM rPCNA, 0, 500 or 1000 nM caPep) was “significantly reduced rPCNA interaction with the immobilized FEN1 PIP-box sequence”.
N.N.[Cl][Pt][Cl] [cisplatin, reference compound] was tested, and the “reduction of number of colonies, single agent” value (SK-N-BE(2)c cells) was “less than 30%”.
“RDRDRDRDRDRDRDRDRDCCEPGLIYEQ [R9-srbPep, R9-CC fused to the same residues as PCNA L126-Y133 in scrambled order; control]” was tested, and the “effect on cell growth” value (panel of NB cell lines) was “did not significantly affect cell growth up to 50 µM”, the “FEN1 co-localization with PCNA foci” value [2] was “PCNA co-localized with FEN1 and LIGI at discrete foci” and the “LIGI co-localization with PCNA foci” value [3] was “PCNA co-localized with FEN1 and LIGI at discrete foci”. The “cell cycle progress within 6 h” value (synchronized cells) was “neither peptide significantly affected cell cycle progress within 6 h”, the “ãH2A.X level within 30 min after irradiation” value (ãH2A.X level) was “increased within 30 min following ã-irradiation in cells treated with either peptide” and the “ãH2A.X level 48 h after irradiation” value (ãH2A.X level; 48 h) was “went down to a basal level by 48 h”. For the same molecule, the “Rad51 foci at 48 h” value [4] was “almost completely resolve the Rad51 foci”.

From paper PMC3984256, “A PCNA-Derived Cell Permeable Peptide Selectively Inhibits Neuroblastoma Cell Growth” (PLoS ONE, 2014)
